Results from publication PMC10810011 (Expert opinion on drug delivery, 2023).

Columns and labels:
histamine H1 = histamine H1 (Homo sapiens, UniProt P35367); conditions: M13 20 μM, 100 = no effect
Caco-2/BBe cells = experiment: Cancer-related protein expression, Human XL oncology array; format: cell-based; conditions: Caco-2/BBe lysates, 24 h; free M13 5 μg/mL, M13-NL 10 μg/mL (5 μg/mL M13)
[1] = Chemical stability in acidic PBS; format: physicochemical; conditions: acidic PBS pH 5.0 or 3.0, 37 °C, 2 h, HPLC
Opioid kappa = Opioid kappa (Homo sapiens, UniProt P41145); experiment: InVEST radioligand filter binding, Opioid kappa; conditions: M13 20 μM, 100 = no effect
[2] = system: intestinal microbiota of AOM/DSS-induced CAC mice; experiment: Intestinal microbiota analysis in AOM/DSS-induced CAC mice; format: in vivo, mouse; conditions: feces day 60
AHR-inhibition = molecular target: T1, AHR-inhibition (Homo sapiens, UniProt P35869); experiment: InVEST fluorescence polarization binding/cell-based activity, AHR-inhibition; conditions: M13 20 μM, 100 = no effect
T1 sequence (P35869 11-848): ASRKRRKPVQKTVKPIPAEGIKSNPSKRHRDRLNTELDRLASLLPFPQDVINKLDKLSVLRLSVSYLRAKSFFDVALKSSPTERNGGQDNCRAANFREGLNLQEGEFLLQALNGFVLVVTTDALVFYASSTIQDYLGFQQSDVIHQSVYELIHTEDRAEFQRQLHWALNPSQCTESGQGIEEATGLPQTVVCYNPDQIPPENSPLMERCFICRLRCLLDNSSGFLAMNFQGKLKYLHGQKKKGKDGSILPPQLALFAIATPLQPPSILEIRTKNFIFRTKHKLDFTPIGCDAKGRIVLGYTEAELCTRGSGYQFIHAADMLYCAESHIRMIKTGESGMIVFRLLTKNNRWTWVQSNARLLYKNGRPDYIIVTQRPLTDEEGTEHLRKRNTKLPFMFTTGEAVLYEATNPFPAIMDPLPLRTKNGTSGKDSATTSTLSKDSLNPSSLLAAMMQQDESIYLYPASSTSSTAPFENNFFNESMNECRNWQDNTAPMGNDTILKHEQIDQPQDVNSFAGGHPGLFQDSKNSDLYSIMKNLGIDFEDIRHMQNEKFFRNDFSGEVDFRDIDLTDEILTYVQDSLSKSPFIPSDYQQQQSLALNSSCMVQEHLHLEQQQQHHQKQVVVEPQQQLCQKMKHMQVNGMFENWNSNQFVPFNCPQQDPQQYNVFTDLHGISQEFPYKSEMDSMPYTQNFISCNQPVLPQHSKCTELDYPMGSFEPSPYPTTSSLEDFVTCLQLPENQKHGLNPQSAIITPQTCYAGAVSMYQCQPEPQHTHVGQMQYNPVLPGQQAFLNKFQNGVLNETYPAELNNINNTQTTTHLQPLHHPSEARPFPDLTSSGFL

Muscarinic M2 = molecular target: T2, Muscarinic M2 (Homo sapiens, UniProt P08172); experiment: InVEST radioligand filter binding, Muscarinic M2; conditions: M13 20 μM, 100 = no effect
T2 sequence (P08172 1-466): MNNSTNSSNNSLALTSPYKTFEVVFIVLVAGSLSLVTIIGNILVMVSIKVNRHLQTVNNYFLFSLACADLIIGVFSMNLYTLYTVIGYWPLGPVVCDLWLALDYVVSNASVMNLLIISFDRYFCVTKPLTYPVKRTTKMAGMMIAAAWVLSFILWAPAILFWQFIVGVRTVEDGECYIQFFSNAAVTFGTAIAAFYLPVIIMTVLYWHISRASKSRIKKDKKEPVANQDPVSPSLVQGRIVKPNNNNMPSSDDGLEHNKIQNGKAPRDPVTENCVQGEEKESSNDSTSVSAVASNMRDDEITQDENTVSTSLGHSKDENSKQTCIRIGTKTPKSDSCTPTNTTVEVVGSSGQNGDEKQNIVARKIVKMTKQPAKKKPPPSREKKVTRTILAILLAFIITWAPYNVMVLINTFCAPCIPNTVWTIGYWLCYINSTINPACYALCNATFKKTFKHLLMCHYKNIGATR

3D Caco-2/BBe cells = experiment: Cytotoxicity in 3D cultured Caco-2/BBe cells; format: cell-based, human
A1 adenosine = A1 adenosine (Homo sapiens, UniProt P30542); experiment: InVEST radioligand filter binding, A1 adenosine; conditions: M13 20 μM, 100 = no effect
Log D7.4 shake-flask = format: physicochemical; conditions: 1-octanol/phosphate buffer pH 7.4, shake-flask, room temperature
beta1 adrenergic = beta1 adrenergic (Homo sapiens, UniProt P08588); experiment: InVEST radioligand filter binding, beta1 adrenergic; conditions: M13 20 μM, 100 = no effect
[3] = system: Salmonella typhimurium TA100; experiment: Ames test, strain TA100; conditions: +S9 or -S9
AOM/DSS-induced CAC mice = experiment: AOM/DSS-induced CAC mouse model; format: in vivo; conditions: oral 5 mg/kg every 2 days, day 60
5-HT2A = 5-HT2A (Homo sapiens, UniProt P28223); experiment: InVEST radioligand filter binding, 5-HT2A; conditions: M13 20 μM, 100 = no effect
CD-1 mice = experiment: Single-dose maximum tolerated dose; format: in vivo, mouse
Muscarinic M3 = Muscarinic M3 (Homo sapiens, UniProt P20309); experiment: InVEST radioligand filter binding, Muscarinic M3; conditions: M13 20 μM, 100 = no effect
5-HT2B = 5-HT2B (Homo sapiens, UniProt P41595); experiment: InVEST radioligand filter binding, 5-HT2B; conditions: M13 20 μM, 100 = no effect
Sequence of 5-HT2B (P41595 whole entry): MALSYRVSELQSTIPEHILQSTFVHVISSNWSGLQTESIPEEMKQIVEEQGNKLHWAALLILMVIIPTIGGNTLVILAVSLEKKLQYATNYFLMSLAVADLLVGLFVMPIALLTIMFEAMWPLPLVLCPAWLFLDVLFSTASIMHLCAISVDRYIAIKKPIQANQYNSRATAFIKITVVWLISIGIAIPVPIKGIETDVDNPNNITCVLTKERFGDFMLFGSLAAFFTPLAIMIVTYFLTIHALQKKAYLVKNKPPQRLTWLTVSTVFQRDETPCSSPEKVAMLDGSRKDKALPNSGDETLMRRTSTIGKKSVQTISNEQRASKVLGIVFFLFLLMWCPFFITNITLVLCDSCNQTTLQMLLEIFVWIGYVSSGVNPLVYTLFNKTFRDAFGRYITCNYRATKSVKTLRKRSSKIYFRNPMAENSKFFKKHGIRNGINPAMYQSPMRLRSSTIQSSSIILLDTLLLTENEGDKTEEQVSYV

Sequence of A1 adenosine (P30542 whole entry): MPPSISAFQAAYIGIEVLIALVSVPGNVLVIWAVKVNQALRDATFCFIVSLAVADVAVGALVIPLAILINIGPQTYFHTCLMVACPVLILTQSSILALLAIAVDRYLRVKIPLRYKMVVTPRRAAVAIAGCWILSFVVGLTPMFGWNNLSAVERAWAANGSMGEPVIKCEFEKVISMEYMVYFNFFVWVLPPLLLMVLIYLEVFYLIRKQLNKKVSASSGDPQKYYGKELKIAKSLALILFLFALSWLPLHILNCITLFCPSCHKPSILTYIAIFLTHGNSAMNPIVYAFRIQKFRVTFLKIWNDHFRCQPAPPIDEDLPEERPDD
Sequence of histamine H1 (P35367 whole entry): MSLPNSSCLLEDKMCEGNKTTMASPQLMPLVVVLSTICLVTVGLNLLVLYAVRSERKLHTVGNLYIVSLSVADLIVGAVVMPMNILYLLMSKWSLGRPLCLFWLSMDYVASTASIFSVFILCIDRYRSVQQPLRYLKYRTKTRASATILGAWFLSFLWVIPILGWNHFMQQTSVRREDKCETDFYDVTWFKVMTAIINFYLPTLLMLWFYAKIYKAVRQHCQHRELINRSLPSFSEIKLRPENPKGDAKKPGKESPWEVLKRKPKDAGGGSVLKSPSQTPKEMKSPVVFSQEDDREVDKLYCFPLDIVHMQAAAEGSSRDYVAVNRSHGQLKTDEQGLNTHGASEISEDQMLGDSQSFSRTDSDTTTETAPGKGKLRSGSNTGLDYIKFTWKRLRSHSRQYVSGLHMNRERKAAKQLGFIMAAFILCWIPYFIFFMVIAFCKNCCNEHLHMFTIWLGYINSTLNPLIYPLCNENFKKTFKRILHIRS
Sequence of Opioid kappa (P41145 whole entry): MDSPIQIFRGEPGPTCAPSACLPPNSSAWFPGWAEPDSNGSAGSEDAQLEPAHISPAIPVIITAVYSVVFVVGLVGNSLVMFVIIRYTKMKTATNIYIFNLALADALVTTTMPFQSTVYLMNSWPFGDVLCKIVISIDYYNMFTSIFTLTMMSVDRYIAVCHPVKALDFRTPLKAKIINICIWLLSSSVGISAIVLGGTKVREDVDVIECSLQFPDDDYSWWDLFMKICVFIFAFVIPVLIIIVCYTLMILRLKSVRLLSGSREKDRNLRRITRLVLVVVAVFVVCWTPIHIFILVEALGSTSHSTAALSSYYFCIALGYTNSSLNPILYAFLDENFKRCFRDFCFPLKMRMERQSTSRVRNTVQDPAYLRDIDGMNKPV
Sequence of 5-HT2A (P28223 whole entry): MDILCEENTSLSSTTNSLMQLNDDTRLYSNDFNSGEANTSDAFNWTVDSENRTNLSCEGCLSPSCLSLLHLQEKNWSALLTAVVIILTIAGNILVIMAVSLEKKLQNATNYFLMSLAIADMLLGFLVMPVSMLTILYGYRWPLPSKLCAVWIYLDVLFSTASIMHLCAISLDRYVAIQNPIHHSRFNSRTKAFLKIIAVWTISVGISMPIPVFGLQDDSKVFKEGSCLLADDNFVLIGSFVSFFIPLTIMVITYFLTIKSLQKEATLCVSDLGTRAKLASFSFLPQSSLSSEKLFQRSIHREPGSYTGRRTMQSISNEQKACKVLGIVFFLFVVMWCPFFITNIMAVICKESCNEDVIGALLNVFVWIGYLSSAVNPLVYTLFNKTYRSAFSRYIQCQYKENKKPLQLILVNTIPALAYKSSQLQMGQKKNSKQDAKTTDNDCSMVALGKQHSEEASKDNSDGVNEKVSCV
Sequence of beta1 adrenergic (P08588 whole entry): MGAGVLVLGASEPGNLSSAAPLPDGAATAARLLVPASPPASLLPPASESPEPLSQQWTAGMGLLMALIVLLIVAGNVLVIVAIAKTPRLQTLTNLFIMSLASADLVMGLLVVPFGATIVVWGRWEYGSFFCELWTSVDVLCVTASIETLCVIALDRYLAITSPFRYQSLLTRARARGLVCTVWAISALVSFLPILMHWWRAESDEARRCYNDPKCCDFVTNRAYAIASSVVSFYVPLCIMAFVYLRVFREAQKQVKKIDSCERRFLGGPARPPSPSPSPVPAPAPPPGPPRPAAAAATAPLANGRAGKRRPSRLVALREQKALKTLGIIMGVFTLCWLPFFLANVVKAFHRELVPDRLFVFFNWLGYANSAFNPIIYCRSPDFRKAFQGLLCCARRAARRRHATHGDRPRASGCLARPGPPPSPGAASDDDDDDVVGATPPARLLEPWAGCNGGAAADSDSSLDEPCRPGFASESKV
Sequence of Muscarinic M3 (P20309 whole entry): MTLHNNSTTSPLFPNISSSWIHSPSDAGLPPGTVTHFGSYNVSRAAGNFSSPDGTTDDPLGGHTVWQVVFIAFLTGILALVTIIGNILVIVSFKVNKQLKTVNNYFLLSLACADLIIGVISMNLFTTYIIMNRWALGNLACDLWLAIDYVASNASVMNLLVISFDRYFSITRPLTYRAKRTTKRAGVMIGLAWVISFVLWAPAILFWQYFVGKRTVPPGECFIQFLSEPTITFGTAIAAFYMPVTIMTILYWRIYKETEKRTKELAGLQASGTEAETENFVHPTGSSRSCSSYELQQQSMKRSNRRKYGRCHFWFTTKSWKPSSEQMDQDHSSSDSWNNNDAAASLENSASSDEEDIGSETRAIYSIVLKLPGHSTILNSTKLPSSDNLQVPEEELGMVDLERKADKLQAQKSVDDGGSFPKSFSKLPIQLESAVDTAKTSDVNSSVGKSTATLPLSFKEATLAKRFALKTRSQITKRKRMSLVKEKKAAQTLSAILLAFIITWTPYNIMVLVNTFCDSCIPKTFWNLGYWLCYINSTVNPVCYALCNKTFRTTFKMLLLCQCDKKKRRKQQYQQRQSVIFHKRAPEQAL

## CCCCCC(CC(=O)CCc1ccc(O)c(OC)c1)SC[C@H](NC(=O)CC[C@H](N)C(=O)O)C(=O)NCC(=O)O (stereo partly shown) [M13, 5-glutathione-6-shogaol]
Histamine H1; repetition 1
  % Activity Data 1: 102%
Histamine H1; repetition 2
  % Activity Data 2: 99%
Caco-2/BBe cells
  BCL-x expression vs. Control and statistical significance: Down-regulation, ^*
  CCL20/MIP-3α expression vs. Control and statistical significance: Down-regulation, ^**
  CEACAM-5 expression vs. Control and statistical significance: Down-regulation, ^*
  CXCL8/IL-8 expression vs. Control and statistical significance: Down-regulation, ^*
  CapG expression vs. Control and statistical significance: Down-regulation, ^*
  Cathepsin B expression vs. Control and statistical significance: Down-regulation, ^*
  Cathepsin D expression vs. Control and statistical significance: Down-regulation, ^*
  Cathepsin S expression vs. Control and statistical significance: Down-regulation, ^**
  Dkk-1 expression vs. Control and statistical significance: Down-regulation, ^**
  EGFR expression vs. Control and statistical significance: Down-regulation, ^*
  Enolase 2 expression vs. Control and statistical significance: Down-regulation, ^*
  ErbB2/Her2 expression vs. Control and statistical significance: Down-regulation, ^**
  ErbB3/Her3 expression vs. Control and statistical significance: Down-regulation, ^***
  Galectin-3 expression vs. Control and statistical significance: Down-regulation, *
  HNF-3β expression vs. Control and statistical significance: Down-regulation, ^**
  HO-1/HMOX1 expression vs. Control and statistical significance: Down-regulation, ^***
  P27/Kip1 expression vs. Control and statistical significance: Down-regulation, ^**
  PDGF-AA expression vs. Control and statistical significance: Down-regulation, ^*
  Progranulin expression vs. Control and statistical significance: Down-regulation, ^*
  Prostasin/Prss8 expression vs. Control and statistical significance: Down-regulation, ^*
  Survivin expression vs. Control and statistical significance: Down-regulation, ^***
  TROP1/EpCAM expression vs. Control and statistical significance: Down-regulation, ^***
[1]
  relative contents of M13 before and after incubation: consistent
Opioid kappa; repetition 1
  % Activity Data 1: 95%
Opioid kappa; repetition 2
  % Activity Data 2: 93%
[2]
  unique species (Venn diagram vs WT and AOM/DSS groups): three
AHR-inhibition; repetition 1
  % Activity Data 1: 98%
AHR-inhibition; repetition 2
  % Activity Data 2: 101%
Muscarinic M2; repetition 1
  % Activity Data 1: 93%
Muscarinic M2; repetition 2
  % Activity Data 2: 115%
3D Caco-2/BBe cells; 11 days culture, regardless of the group
  sizes of 3D cell spheres: did not change significantly
3D Caco-2/BBe cells; M13 ≥ 80 μM, day 11, p < 0.05
  green fluorescence intensity of 3D cell spheres (live cells) vs NC group: significantly lower
A1 adenosine; repetition 1
  % Activity Data 1: 85%
A1 adenosine; repetition 2
  % Activity Data 2: 87%
Log D7.4 shake-flask
  LogD7.4: −1.75
beta1 adrenergic; repetition 1
  % Activity Data 1: 120%
beta1 adrenergic; repetition 2
  % Activity Data 2: 116%
[3]; TA100, 156 ~ 5000 μg/plate
  number of revertant colonies: did not increase
[3]; TA100, all concentrations 156 ~ 5000 μg/plate
  mutation factor: less than 1.6
AOM/DSS-induced CAC mice
  number of tumors compared with the AOM/DSS group: failed to reduce
5-HT2A; repetition 1
  % Activity Data 1: 99%
5-HT2A; repetition 2
  % Activity Data 2: 98%
CD-1 mice; single oral dose 1000 mg/kg, day 7
  pathological sign in the anatomical organs: no pathological sign
CD-1 mice; single oral dose 1000 mg/kg, day 7, vs PBS control
  body weight change, spleen-to-body weight ratio, blood physiological and biochemical indexes: no significant difference
CD-1 mice; single oral dose 1000 mg/kg, female CD-1 mice, 7 days
  death during the experiment: did not observe any death
CD-1 mice; single oral dose, mice
  maximum tolerated dose: > 1000 mg/kg
Muscarinic M3; repetition 1
  % Activity Data 1: 100%
Muscarinic M3; repetition 2
  % Activity Data 2: 103%
5-HT2B; repetition 1
  % Activity Data 1: 109%
5-HT2B; repetition 2
  % Activity Data 2: 113%
